Source: patent publication US20130096149A1, “HETEROARYL COMPOUNDS AND COMPOSITIONS AS PROTEIN KINASE INHIBITORS” (NOVARTIS AG, priority 2010, published 2013)

Molecular target: b-Raf(V600E) (Homo sapiens, UniProt P15056, V600E)
Experiment: Raf/Mek Amplified Luminescence Proximity Homogeneous Assay (Alpha Screen)
Type: biochemical
Details: b-Raf(V600E) approximately 4 pM; biotinylated Mek, kinase dead approximately 10 nM; ATP 10 μM; pre-incubation 60 minutes; reaction 3 hours at room temperature; read-out: mut-bRaf IC50
Description: Raf/Mek Amplified Luminescence Proximity Homogeneous Assay
Assay buffer: 50 mM Tris, pH 7.5, 15 mM MgCl2, 0.01% Bovine Serum Albumin (BSA), 1 mM dithiothreitol (DTT) Stop buffer: 60 mM ethylenediaminetetraacetic acid (EDTA), 0.01% Tween® 20 Bead buffer: 50 mM Tris, pH 7.5, 0.01% Tween® 20 […]
biotinylated Mek, kinase dead
Alpha Screen detection kit (available from PerkinElmer™, #6760617R)
Anti phospho-MEK1/2 (available from Cell Signaling Technology, Inc. #9121) 384 well assay plates (White Greiner® plates, #781207) […]
b-Raf(V600E) approximately 4 pM […]
biotinylated Mek, Kinase dead approximately 10 nM
Pre-incubation time with compounds 60 minutes at room temperature
Reaction time 1 or 3 hours at room temperature
Raf and biotinylated Mek, kinase dead, were combined at 2× final concentrations in assay buffer (50 mM Tris, pH 7.5, 15 mM MgCl2, 0.01% BSA and 1 mM DTT) and dispensed 10 μl per well in assay plates (Greiner white 384 well assay plates #781207) containing 0.5 μl of 40× of a raf kinase inhibitor test compound diluted in 100% DMSO. The plate was incubated for 60 minutes at room temperature.
The Raf kinase activity reaction was started by the addition of 10 μL per well of 2×ATP diluted in assay buffer. After 3 hours (bRaf(V600E)) or 1 hour (c-Raf), the reactions were stopped with the addition of 10 μL of stop reagent (60 mM EDTA). Phosphorylated product was measured using a rabbit anti-p-MEK (Cell Signaling, #9121) antibody and the Alpha Screen IgG (ProteinA) detection Kit (PerkinElmer #6760617R), by the addition of 30 μL to the well of a mixture of the antibody (1:2000 dilution) and detection beads (1:2000 dilution of both beads) in bead buffer (50 mM Tris, pH 7.5, 0.01% Tween20). The additions were carried out under dark conditions to protect the detection beads from light. A lid was placed on top of the plate and incubated for 1 hour at room temperature, then the luminescence was read on a PerkinElmer Envision instrument. The concentration of each compound for 50% inhibition (IC50) was calculated by non-linear regression using XL Fit data analysis software.

Chain of b-Raf(V600E) (P15056 whole entry V600E): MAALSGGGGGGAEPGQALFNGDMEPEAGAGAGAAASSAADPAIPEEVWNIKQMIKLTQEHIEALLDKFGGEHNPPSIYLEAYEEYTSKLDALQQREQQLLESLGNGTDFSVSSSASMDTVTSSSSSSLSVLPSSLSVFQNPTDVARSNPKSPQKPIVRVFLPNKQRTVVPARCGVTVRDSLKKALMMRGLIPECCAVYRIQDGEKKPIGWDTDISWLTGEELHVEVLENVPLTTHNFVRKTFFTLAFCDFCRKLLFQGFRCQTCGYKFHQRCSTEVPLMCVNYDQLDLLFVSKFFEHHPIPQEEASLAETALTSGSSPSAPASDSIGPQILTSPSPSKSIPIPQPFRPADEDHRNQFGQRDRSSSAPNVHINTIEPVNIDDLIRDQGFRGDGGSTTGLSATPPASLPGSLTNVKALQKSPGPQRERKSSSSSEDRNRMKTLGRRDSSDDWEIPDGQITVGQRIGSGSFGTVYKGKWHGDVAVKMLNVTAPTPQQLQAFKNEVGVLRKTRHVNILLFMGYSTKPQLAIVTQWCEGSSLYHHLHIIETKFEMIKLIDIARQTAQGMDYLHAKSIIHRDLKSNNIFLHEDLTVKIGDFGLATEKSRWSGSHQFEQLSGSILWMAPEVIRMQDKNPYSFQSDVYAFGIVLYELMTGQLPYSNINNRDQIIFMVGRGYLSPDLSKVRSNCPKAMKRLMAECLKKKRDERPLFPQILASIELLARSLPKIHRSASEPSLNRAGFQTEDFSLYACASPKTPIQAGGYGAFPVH

Structure (SMILES) | IC50
COC(=O)N[C@@H](C)CNc1nccc(-c2oc(C3CC3)nc2-c2cc(Cl)cc(NS(C)(=O)=O)c2F)n1 [Example 5, (S)-methyl 1-(4-(4-(5-chloro-2-fluoro-3-(methylsulfonamido)phenyl)-2-cyclopropyloxazol-5-yl)pyrimidin-2-ylamino)propan-2-ylcarbamate] | 0.82 nM
CCCS(=O)(=O)Nc1cccc(-c2nc(C3CC3)oc2-c2ccnc(NC)n2)c1F [Example 6, N-(3-(2-cyclopropyl-5-(2-(methylamino)pyrimidin-4-yl)oxazol-4-yl)-2-fluorophenyl)propane-1-sulfonamide] | 28 nM
CNc1nccc(-c2sc(C(C)(C)C)nc2-c2cc(F)cc(NS(C)(=O)=O)c2Cl)n1 [Example 11] | 6 nM
CC(C)(C)c1nc(-c2cc(F)cc(NS(C)(=O)=O)c2Cl)c(-c2ccnc(N)n2)s1 [Example 12] | 9 nM
CS(=O)(=O)Nc1cc(F)cc(-c2nc(C3CC3)sc2-c2ccnc(N)n2)c1Cl [Example 16] | 15 nM
CS(=O)(=O)Nc1cc(F)cc(-c2nc(C3CC3)oc2-c2ccnc(N)n2)c1Cl [Example 17] | 2.7 nM
CNc1nccc(-c2oc(C3CC3)nc2-c2cc(F)cc(NS(C)(=O)=O)c2Cl)n1 [Example 18] | 18 nM
COC(=O)N[C@@H](C)CNc1nccc(-c2oc(C3CC3)nc2-c2cc(F)cc(NS(C)(=O)=O)c2Cl)n1 [Example 19] | 1.5 nM
CNc1nccc(-c2sc(C3CC3)nc2-c2cc(Cl)cc(NS(C)(=O)=O)c2F)n1 [Example 20] | 3 nM
CS(=O)(=O)Nc1cc(Cl)cc(-c2nc(C3CC3)sc2-c2ccnc(N)n2)c1F [Example 21] | 5.8 nM
CS(=O)(=O)Nc1cc(Cl)cc(-c2nc(C3CC3)oc2-c2ccnc(N)n2)c1F [Example 22] | 3.3 nM
CNc1nccc(-c2oc(C3CC3)nc2-c2cc(Cl)cc(NS(C)(=O)=O)c2F)n1 [Example 23] | 18 nM
CC(C)(C)c1nc(-c2cccc(NS(C)(=O)=O)c2Cl)c(-c2ccnc(N)n2)s1 [Example 24] | 46 nM
CCCS(=O)(=O)Nc1cccc(-c2nc(C(C)(C)C)sc2-c2ccnc(N)n2)c1Cl [Example 26] | 0.65 nM
CNc1nccc(-c2sc(C(C)(C)C)nc2-c2cccc(NS(C)(=O)=O)c2Cl)n1 [Example 27] | 44 nM
CCCS(=O)(=O)Nc1cccc(-c2nc(C(C)(C)C)sc2-c2ccnc(NC)n2)c1Cl [Example 28] | 1.1 nM
CCCS(=O)(=O)Nc1cccc(-c2nc(C3CC3)sc2-c2ccnc(N)n2)c1Cl [Example 29] | 3.4 nM

Structure (SMILES) | IC50
CCCS(=O)(=O)Nc1cccc(-c2nc(C3CC3)oc2-c2ccnc(N)n2)c1Cl [Example 30] | 1.2 nM
CCCS(=O)(=O)Nc1cccc(-c2nc(C3CC3)oc2-c2ccnc(NC[C@H](C)NC(=O)OC)n2)c1Cl [Example 31] | 1.3 nM
CS(=O)(=O)Nc1cccc(-c2nc(C3CC3)sc2-c2ccnc(N)n2)c1Cl [Example 32] | 44 nM
CCCS(=O)(=O)Nc1cccc(-c2nc(C(C)(C)C)sc2-c2ccnc(NC[C@H](C)NC(=O)OC)n2)c1F [Example 34] | 0.62 nM
CCCS(=O)(=O)Nc1cccc(-c2nc(C(C)(C)C)sc2-c2ccnc(N)n2)c1F [Example 35] | 1.8 nM
CCCS(=O)(=O)Nc1cccc(-c2nc(C3CC3)sc2-c2ccnc(NC)n2)c1F [Example 37] | 5 nM
CCCS(=O)(=O)Nc1cccc(-c2nc(C3CC3)oc2-c2ccnc(NC[C@H](C)NC(=O)OC)n2)c1F [Example 38] | 0.59 nM
CCCS(=O)(=O)Nc1cccc(-c2nc(C3CC3)oc2-c2ccnc(N)n2)c1F [Example 39] | 2.1 nM
CCCS(=O)(=O)Nc1cccc(-c2nc(C3CC3)sc2-c2ccnc(N)n2)c1F [Example 41] | 11 nM
COCC(=O)N[C@@H](C)CNc1nccc(-c2oc(-c3ccc(F)cc3)nc2-c2cc(C)cc(NS(C)(=O)=O)c2Cl)n1 [Example 42] | 3.1 nM
CCCNc1nccc(-c2oc(C3CC3)nc2-c2cccc(NS(C)(=O)=O)c2Cl)n1 [Example 43] | 62 nM
COC(=O)N[C@@H](C)CNc1nccc(-c2oc(C3CC3)nc2-c2cccc(NS(C)(=O)=O)c2Cl)n1 [Example 44] | 1.3 nM
CS(=O)(=O)Nc1cccc(-c2nc(C3CC3)oc2-c2ccnc(N)n2)c1Cl [Example 45] | 17 nM
CS(=O)(=O)Nc1cccc(-c2nc(C3CC3)oc2-c2ccnc(NCCC#N)n2)c1Cl [Example 46] | 0.95 nM
CCCS(=O)(=O)Nc1cc(Cl)cc(-c2nc(C(C)(C)C)sc2-c2ccnc(NC[C@H](C)NC(=O)OC)n2)c1Cl [Example 48] | 0.7 nM
CNc1nccc(-c2sc(C3CC3)nc2-c2cc(Cl)cc(NS(C)(=O)=O)c2Cl)n1 [Example 54] | 0.46 nM

The remaining molecules from weak to strong by IC50, led by results:

IC50 | Structure (SMILES)
0.45 nM | CS(=O)(=O)Nc1cc(Cl)cc(-c2nc(C3CC3)sc2-c2ccnc(N)n2)c1Cl [Example 53]
0.44 nM | CCCS(=O)(=O)Nc1cc(F)cc(-c2nc(C(C)(C)C)sc2-c2ccncn2)c1Cl [Example 2, N-(3-(2-tert-butyl-5-(pyrimidin-4-yl)thiazol-4-yl)-2-chloro-5-fluorophenyl)propane-1-sulfonamide]
0.43 nM | COC(=O)N[C@@H](C)CNc1nccc(-c2sc(C(C)(C)C)nc2-c2cccc(NS(C)(=O)=O)c2F)n1 [Example 36]
0.42 nM | COC(=O)N[C@@H](C)CNc1nccc(-c2sc(C3CC3)nc2-c2cccc(NS(C)(=O)=O)c2Cl)n1 [Example 33]
0.4 nM | COC(=O)N[C@@H](C)CNc1nccc(-c2sc(C(C)(C)C)nc2-c2cc(Cl)cc(NS(C)(=O)=O)c2Cl)n1 [Example 49]
0.33 nM | CCCS(=O)(=O)Nc1cc(F)cc(-c2nc(C(C)(C)C)sc2-c2ccnc(NC[C@H](C)NC(=O)OC)n2)c1Cl [Example 10]
0.32 nM | COC(=O)N[C@@H](C)CNc1nccc(-c2sc(C(C)(C)C)nc2-c2cccc(NS(C)(=O)=O)c2Cl)n1 [Example 25]
0.25 nM | COC(=O)N[C@@H](C)CNc1nccc(-c2sc(C(C)(C)C)nc2-c2cc(F)cc(NS(C)(=O)=O)c2Cl)n1 [Example 1, (S)-methyl 1-(4-(2-tert-butyl-4-(2-chloro-5-fluoro-3-(methylsulfonamido)phenyl)thiazol-5-yl)pyrimidin-2-ylamino)propan-2-ylcarbamate]
0.24 nM | CCCS(=O)(=O)Nc1cc(Cl)cc(-c2nc(C3CC3)sc2-c2ccnc(NC[C@H](C)NC(=O)OC)n2)c1Cl [Example 52]
0.22 nM | COC(=O)N[C@@H](C)CNc1nccc(-c2sc(C3CC3)nc2-c2cc(F)cc(NS(C)(=O)=O)c2Cl)n1 [Example 3, (S)-methyl 1-(4-(4-(2-chloro-5-fluoro-3-(methylsulfonamido)phenyl)-2-cyclopropylthiazol-5-yl)pyrimidin-2-ylamino)propan-2-ylcarbamate]
0.22 nM | CCCS(=O)(=O)Nc1cccc(-c2nc(C(C)(C)C)sc2-c2ccnc(NC[C@H](C)NC(=O)OC)n2)c1Cl [Example 7, (S)-methyl 1-(4-(2-tert-butyl-4-(2-chloro-3-(propylsulfonamido)phenyl)thiazol-5-yl)pyrimidin-2-ylamino)propan-2-ylcarbamate]
0.14 nM | CCCS(=O)(=O)Nc1cc(F)cc(-c2nc(C(C)(C)C)sc2-c2ccnc(NC)n2)c1Cl [Example 8]
0.14 nM | CCCS(=O)(=O)Nc1cc(F)cc(-c2nc(C(C)(C)C)sc2-c2ccnc(N)n2)c1Cl [Example 9]
0.13 nM | CCCS(=O)(=O)Nc1cc(F)cc(-c2nc(C3CC3)sc2-c2ccnc(N)n2)c1Cl [Example 13]
0.13 nM | CCCS(=O)(=O)Nc1cc(Cl)cc(-c2nc(C(C)(C)C)sc2-c2ccnc(N)n2)c1Cl [Example 47]
0.12 nM | COC(=O)N[C@@H](C)CNc1nccc(-c2sc(C3CC3)nc2-c2cc(Cl)cc(NS(C)(=O)=O)c2F)n1 [Example 4, (S)-methyl 1-(4-(4-(5-chloro-2-fluoro-3-(methylsulfonamido)phenyl)-2-cyclopropylthiazol-5-yl)pyrimidin-2-ylamino)propan-2-ylcarbamate]
0.12 nM | CCCS(=O)(=O)Nc1cccc(-c2nc(C3CC3)sc2-c2ccnc(NC[C@H](C)NC(=O)OC)n2)c1F [Example 40]
0.091 nM | CCCS(=O)(=O)Nc1cc(F)cc(-c2nc(C3CC3)sc2-c2ccnc(NC)n2)c1Cl [Example 14]
0.08 nM | CCCS(=O)(=O)Nc1cc(Cl)cc(-c2nc(C3CC3)sc2-c2ccnc(NC)n2)c1Cl [Example 51]
0.077 nM | CCCS(=O)(=O)Nc1cc(F)cc(-c2nc(C3CC3)sc2-c2ccnc(NC[C@H](C)NC(=O)OC)n2)c1Cl [Example 15]
0.056 nM | CCCS(=O)(=O)Nc1cc(Cl)cc(-c2nc(C3CC3)sc2-c2ccnc(N)n2)c1Cl [Example 50]
